The text below walks through data of ChEMBL document CHEMBL2176963, “Design, synthesis, and biological evaluation of 3-(1H-1,2,3-triazol-1-yl)benzamide derivatives as Potent Pan Bcr-Abl inhibitors including the threonine(315)→isoleucine(315) mutant” (J Med Chem, 2012).

Experiment [1] in a line: Antiproliferative activity against mouse BA/F3 cells expressing wild type Bcr-Abl after 72 hrs by CCK-8 assay. The following applies: BaF3, 72 h. (In general: Formazan colour is commonly taken as a measure of viable cells.)
For experiment [2], the system named is K562. Kind of experiment: Antiproliferative activity against human K562 cells expressing wild type Bcr-Abl after 72 hrs by CCK-8 assay. Particulars: K562, 72 h.
Another experiment is described as follows: cells. Particulars: Mus musculus, BaF3, 72 h.
Experiment [3] has as its system K562. In words: Antiproliferative activity against imatinib-resistant human K562 cells expressing Bcr-Abl Q252H mutant after 72 hrs by CCK-8 assay. Particulars: K562, 72 h.
Experiment [4] in a line: Antiproliferative activity against human KU812 cells expressing wild type Bcr-Abl after 72 hrs by CCK-8 assay. The following applies: KU812, 72 h.

Molecules are shown by their SMILES.

As a reminder, the IC50 is the point on the concentration scale where inhibition reaches its midpoint. A high value points to weaker potency in that assay. Regarding `Cc1ccc(C(=O)Nc2ccc(CN3CCN(C)CC3)c(C(F)(F)F)c2)cc1-n1cc(-c2ccc3[nH]ncc3c2)nn1`, the IC50 was 56.2 nM in experiment [1]; 12.4 nM with K562 [2]; 754 nM in the experiment “cells”; 109 nM in the experiment with K562 [3]; 12.2 nM in experiment [4].

On to `Cc1ccc(C(=O)Nc2ccc(CN3CCN(C)CC3)c(C(F)(F)F)c2)cc1-n1cc(-c2cnc3[nH]nc(C)c3c2)nn1`, for which the IC50 in experiment [1] was found to be 2.03 nM; in the experiment on K562 [2], 0.39 nM; in the experiment “cells”, 79.6 nM; in the experiment with K562 [3], 4.74 nM; in experiment [4], 0.15 nM.

For `Cc1ccc(C(=O)Nc2ccc(CN3CCN(C)CC3)c(C(F)(F)F)c2)cc1-n1cc(-c2cnc3ccccn23)nn1`, the IC50 in experiment [1] came out at 4.54 nM; in the experiment on K562 [2], 0.63 nM; in the experiment “cells”, 178 nM; in the experiment on K562 [3], 1.85 nM; in experiment [4], 0.16 nM.

Regarding `CNc1ncc(-c2cn(-c3cc(C(=O)Nc4ccc(CN5CCN(C)CC5)c(C(F)(F)F)c4)ccc3C)nn2)cn1`, the IC50 in experiment [1] came to 2.74 nM; in the experiment with K562 [2], 0.67 nM; in the experiment “cells”, 299 nM; with K562 [3] it was 11 nM; in experiment [4] it was 0.16 nM.

As to `Cc1ccc(C(=O)Nc2ccc(CN3C[C@H]4CN(C)C[C@H]4C3)c(C(F)(F)F)c2)cc1-n1cc(-c2cnc3[nH]ncc3c2)nn1`, the IC50 in experiment [1] was determined as 3.66 nM; with K562 [2], 0.25 nM; in the experiment “cells”, 473 nM; with K562 [3], 3.55 nM; in experiment [4] it was 0.4 nM.

`CCc1ccc(C(=O)Nc2ccc(CN3CCN(C)CC3)c(C(F)(F)F)c2)cc1-n1cc(-c2cnc3[nH]ncc3c2)nn1`: the IC50 in experiment [1] turned out to be 4.04 nM; with K562 [2] it was 0.85 nM; in the experiment “cells”, 282 nM; in the experiment on K562 [3], 8.96 nM; in experiment [4], 0.39 nM.

With `Cc1ccc(C(=O)Nc2ccc(CN3CCN(C)CC3)c(C(F)(F)F)c2)cc1-n1cc(-c2cnc(NC(C)C)nc2)nn1`, the IC50 in experiment [1] stood at 32.8 nM; in the experiment with K562 [2], 7.26 nM; in the experiment “cells” it was 799 nM; in the experiment with K562 [3], 81.2 nM; in experiment [4] it was 1.44 nM.

In the case of `CN1CCN(Cc2ccc(NC(=O)c3ccc(C4CC4)c(-n4cc(-c5cnc6[nH]ncc6c5)nn4)c3)cc2C(F)(F)F)CC1`, the half-maximal inhibitory concentration (IC50) amounted to 32.9 nM in experiment [1]; 5.69 nM with K562 [2]; 1160 nM in “cells”; 37.5 nM in the experiment on K562 [3]; 4.05 nM in experiment [4].

For `Cc1ccc(C(=O)Nc2ccc(CN3CCN(C)CC3)c(C(F)(F)F)c2)cc1-n1cc(-c2ccc3[nH]ccc3c2)nn1`, the IC50 in experiment [1] was 435 nM; in the experiment with K562 [2], 70.4 nM; in the experiment “cells”, 999 nM; in the experiment with K562 [3], 800 nM; in experiment [4], 19.6 nM.

For `Cc1ccc(C(=O)Nc2ccc(CN3CCN(C)CC3)c(C(F)(F)F)c2)cc1-n1cc(-c2cnc3ncnn3c2)nn1`, the IC50 in experiment [1] came to 316 nM; in the experiment on K562 [2], 40.9 nM; in “cells”, 533 nM; in the experiment with K562 [3], 76.8 nM; in experiment [4] it was 11.2 nM.

Turning to `Cc1ccc(C(=O)Nc2ccc(CN3CCC(N(C)C)CC3)c(C(F)(F)F)c2)cc1-n1cc(-c2cnc3[nH]ncc3c2)nn1`, the IC50 in experiment [1] was 2.76 nM; with K562 [2] it was 0.67 nM; in the experiment “cells” it was 527 nM; with K562 [3], 6.56 nM; in experiment [4] it was 0.43 nM.

As for `Cc1ccc(C(=O)Nc2ccc(CN3CCN(C)CC3)c(C(F)(F)F)c2)cc1-n1cc(-c2cnc3[nH]ccc3c2)nn1`, the IC50 in experiment [1] came to 3.16 nM; with K562 [2] it was 0.42 nM; in “cells”, 66.9 nM; in the experiment on K562 [3], 3.89 nM; in experiment [4], 0.14 nM.

As for `CN1CCN(Cc2ccc(NC(=O)c3ccc(Br)c(-n4cc(-c5cnc6[nH]ncc6c5)nn4)c3)cc2C(F)(F)F)CC1`, the IC50 in experiment [1] is 3.28 nM; in the experiment with K562 [2], 0.23 nM; in the experiment “cells”, 46.4 nM; in the experiment on K562 [3], 1.49 nM; in experiment [4], 0.1 nM.
